Data from a melting point compilation (Tetko et al.; mined from patent text by program, amines drawn as free bases though some values may be those of a salt).

First: Cc1noc2cc(F)c(-n3c(=O)cc(C(F)(F)F)[nH]c3=O)cc12
Second: CN(C)c1nnc(-c2ccc3occ(-c4cccc(OC(F)(F)F)c4)c3c2)o1
The melting point of the first is higher: 235 to 237 °C for the first, 105 to 106 °C for the second.

Compared with `CC(C)Oc1ccc([N+](=O)[O-])cc1OCCN1C(=O)c2ccccc2C1=O`, `C=CCOC(=O)c1ccc(COC(=O)c2ccc(OC(C)C)c(C(C)(C)C)c2)cc1` is lower in melting point: 132 °C for the first, 63 to 64 °C for the second.

Compared with `CCCC(=O)NCCC1=CCc2ccc(OC)cc21`, `CCOC(=O)C(=Cc1cccc(OC)c1)C(=O)OCC` is lower in melting point: 64 to 67 °C for the first, 45 °C for the second.

First: CCN1C(=O)C(C)(C)C(=O)N(C)c2cc(CN(CCn3ccc4oc(C)cc4c3=O)Cc3cncn3C)ccc21
Second: CCCc1nn(C)c2c(=O)n(CCCOc3ccc(OC(C)(C)C(=O)O)cc3)cnc12
The melting point of the first is lower: 106 to 108 °C for the first, 136 to 138 °C for the second.

First: N#CNC=Nc1ccc(-c2ccccn2)cc1
Second: Cc1cc(-c2ccc(C(F)(F)F)cc2)nc2ccnn12
The melting point of the first is higher: 150 to 151 °C for the first, 89 to 90 °C for the second.

First: CCC1(c2ccccc2)OC(c2ccc(-c3ccc(Cl)cc3)cc2)OC1=O (stereo not drawn)
Second: COc1ccc(-c2nc(-c3ccccc3)c(N(C)c3ccccc3)s2)cc1
The melting point of the first is lower: 80 to 83 °C for the first, 100 to 101 °C for the second.

Compared with `COc1cccc(CNC(=O)c2c(-c3ccc(F)cc3)c(-c3ccc(F)cc3)c(C=O)n2C(C)C)c1`, `COc1cccc(-c2ccc3cc(OC)ccc3c2Oc2ccc(O)cc2)c1` is lower in melting point: 167 to 168 °C for the first, 125 to 126 °C for the second.

Compared with `CC(C)N(C)C(=O)C(Cc1ccc(C=O)cc1)NC(=O)OC(C)(C)C` (stereo not drawn), `Cc1cccnc1C(=O)NCCNC(=O)OC(C)(C)C` is lower in melting point: 122 °C for the first, 81 to 82 °C for the second.

First: Clc1c(CBr)ccc2c(Cl)c(CBr)ccc12
Second: OCCCc1cc(-c2ccc(Cl)cc2)n(-c2ccc(Cl)nn2)n1
The melting point of the first is higher: 219 to 221 °C for the first, 131 to 133 °C for the second.

`CC(C)(C)OC(=O)ON=C(c1ccccc1)c1ccccc1` and `OCCCC(=C(c1ccccc1)c1ccccc1)c1ccccc1` cannot be ordered by melting point: 126 to 133 °C for the first, 128 to 130 °C for the second.

First: Oc1ccccc1OCCCN1CCC(=C(c2ccc(F)cc2)c2ccc(F)cc2)CC1
Second: CCn1nnnc1C(C=O)=C(c1ccc(F)cc1)c1ccc(F)cc1
The melting point of the first is lower: 125 to 127 °C for the first, 144 to 145 °C for the second.

First: FC(F)(F)c1cc2c(cc1Cl)C(Cl)Cc1ccccc1S2 (stereo not drawn)
Second: COCc1cc(-c2ncc(C(F)(F)F)cc2Cl)ccc1Cl
The melting point of the first is higher: 100 to 102 °C for the first, 52 to 54 °C for the second.

Compared with `Oc1ccc(NCC2Cc3ccccc3C2)cc1`, `O=C(CCc1ccccc1)N[C@H]1CC[C@H](c2ccc(O)cc2)CC1` is higher in melting point: 106 to 109 °C for the first, 201 to 206 °C for the second.

First: Cc1nc2ccc(N(C)C)nn2c1S(N)(=O)=O
Second: CNC(=O)Cn1c(-c2ccc(C)cc2)nc2ccc(Cl)nc21
The melting point of the first is lower: 227 °C for the first, greater than 250 °C for the second.

First: CC(C)c1onc(-c2ccccc2)c1S(=O)(=O)c1ccc(O)cc1
Second: Cc1onc(-c2ccccc2)c1-c1[nH]c2ccccc2c1CCC(=O)O
The melting point of the first is higher: 173 to 174 °C for the first, 170 to 172 °C for the second.

First: O=C(O)CNCC(=O)NC[C@@H]1CC(c2ccc(-c3ccc(N4C[C@H](Cn5ccnn5)OC4=O)cc3F)cn2)=NO1
Second: O=C(Oc1ccc(F)cc1)N1CCN2C(=O)OC(c3ccccc3)(c3ccccc3)C2C1 (stereo not drawn)
The melting point of the first is higher: 200 to 210 °C for the first, 188 to 189 °C for the second.

Compared with `Cc1oc(-c2ccccc2)nc1COc1ccc(COc2nn(Cc3ccc(OCc4nc(-c5ccccc5)oc4C)cc3)cc2C=O)cc1`, `Cn1c(=O)cc(-c2ccccc2)c2cc(C(COCc3ccc(Cl)cc3)(c3ccc(Cl)cc3)n3ccnc3)ccc21` (stereo not drawn) is higher in melting point: 155 to 156 °C for the first, 177 °C for the second.

Compared with `CCOC(=O)n1nc2c(c1N)CN(C(=O)N[C@H](CN(C)C)c1ccccc1)C2(C)C`, `CCCCn1c(C)c(C)cc(NC(=O)OCc2ccccc2)c1=O` is lower in melting point: 96 to 97 °C for the first, 65 to 66 °C for the second.

First: CN1C(=O)C2(COc3cc4c(cc32)OCCO4)c2c(C(=O)N3CCCC3)cccc21 (stereo not drawn)
Second: Cc1ccc2c(c1)CC(N1CCN(CCN3CCOC3=O)CC1)c1cc(Cl)ccc1S2 (stereo not drawn)
The melting point of the first is higher: 242 to 244 °C for the first, 174 to 175 °C for the second.

First: CC(=O)NC(CCOC(C)=O)(CCOC(C)=O)CCc1ccccc1
Second: COC(=O)[C@H](Cc1c[nH]cn1)NC(=O)[C@H](CCC(N)=O)NC(=O)OCc1ccccc1
The melting point of the first is lower: 73 to 74 °C for the first, 186 to 188 °C for the second.

First: CC(C)(C)c1cc(SCCc2nnco2)cc(C(C)(C)C)c1O
Second: COCc1c(C)c(C(C)(C)C)cc(C(C)(C)C)c1O
The melting point of the first is higher: 87.5 to 89 °C for the first, 70 °C for the second.

Compared with `CCOCc1nc2c(N)nc(C)c(C)c2n1CCCNC(C)=O`, `CCOCc1nc2c(N)nc3cc(-c4ccncc4)ccc3c2n1CC(C)(C)O` is higher in melting point: 162 °C for the first, 220 to 221 °C for the second.

First: CC1(C)C(C=C(Cl)Cl)C1(C)C(=O)O (stereo not drawn)
Second: COc1ccc(S(=O)(=O)C2(C(=O)O)CCN(CC=C(C)C)CC2)cc1
The melting point of the first is lower: 137 to 138 °C for the first, 142 to 145 °C for the second.

Compared with `CC(C)(C)c1cc(I)c(O)c(CNS(=O)(=O)O)c1`, `CCCSc1csc(C(=O)OC)c1S(=O)(=O)NC(C)(C)C` is lower in melting point: 172 to 180 °C for the first, 93 to 98 °C for the second.

First: c1cnc(N2CCN(Cc3ccc(CN4CCN(c5ncccn5)CC4)cc3)CC2)nc1
Second: CN1CCN2CCNC2(c2ccccc2)c2cc(Cl)ccc21 (stereo not drawn)
The melting point of the first is higher: 193 to 195 °C for the first, 100 to 102 °C for the second.

Compared with `COc1ncccc1-c1cnn2ccc(N3CCN(C(=O)OC(C)C)CC3)nc12`, `COc1ccc(N2CCN(c3c(C)c(C)c4c(c3C)CC(C)(CC#N)O4)CC2)cc1` (stereo not drawn) is higher in melting point: 131 to 132 °C for the first, 161 to 163 °C for the second.

Compared with `CC(C)C[C@H](NC(=O)OCC1CCCCC1)C(=O)N[C@@H](CC(C)C)C(=O)N[C@@H](C(C)C)[C@@H](O)c1c(-c2ccccc2)c1=O`, `Cc1ccc2c(c1)c1c(n2C(=O)c2ccccc2)CCCC1C(=O)OCc1ccccc1` (stereo not drawn) is higher in melting point: 109 to 116 °C for the first, 119 to 121 °C for the second.

Going from `CCCCCCC#Cc1csc(C=O)c1` to `CCCCN=C(N)Nc1nc(C)cc(C)n1`, the melting point rises from 2 °C to 185 °C.

First: NC(=O)CC[C@H](NC(=O)CCc1ccc(OCc2ccccc2)cc1OCc1ccccc1)C(=O)N1CCN(Cc2ccccc2)CC1
Second: CCCCCCCCCCOc1cc(OCCCCCCCCCC)cc(N(CC(=O)OCc2ccccc2)CC(=O)OCc2ccccc2)c1
The melting point of the first is higher: 145 to 147 °C for the first, 55 to 57 °C for the second.

First: Cc1oc2c(Br)cc(C(CCOS(C)(=O)=O)CCOS(C)(=O)=O)cc2c1C
Second: CNS(=O)(=O)CCc1ccc2[nH]cc(CC(=O)O)c2c1
The melting point of the first is higher: 154 to 156 °C for the first, 123 to 125 °C for the second.

First: COc1ccc(Cl)cc1C(=O)NCCc1ccc(I)c(S(=O)(=O)N=CN(C)C)c1
Second: CNCCc1c(C)[nH]c2ccc(S(=O)(=O)c3ccccc3)cc12
The melting point of the first is higher: 183 to 186 °C for the first, 165 to 166 °C for the second.

First: CSC(C[C@@H]1CC(=O)N1[Si](C)(C)C(C)(C)C)(SC)SC
Second: CCCOc1ccc(S(=O)(=O)C(C)C)cc1-c1nc2c(CC)nn(C[C@@H]3CCCN3C(=O)OC(C)(C)C)c2c(=O)[nH]1
The melting point of the first is lower: 61 to 62 °C for the first, 141 to 143 °C for the second.

Going from `CCCCc1nc(Cl)c(CC(=O)OCC)c(Cc2ccc(-c3ccccc3-c3nnn[nH]3)cc2)n1` to `CCCCc1nnc2ccccc2c1Cc1ccc(-c2ccccc2)c(C(=O)O)c1`, the melting point rises from 160 °C to 210 °C.

First: O=C1NC(=O)C2c3c([nH]c4ccc(Cl)cc34)-c3[nH]c4ccc(Cl)cc4c3C12 (stereo not drawn)
Second: CCCCC1(N(C)C)CCC(c2[nH]c3ccccc3c2C)(c2[nH]c3ccccc3c2CCNS(=O)(=O)C2CCCC2)CC1 (stereo not drawn)
The melting point of the first is higher: greater than 300 °C for the first, 111 to 115 °C for the second.

First: COc1cc(/C=C/C=C/C(=O)NCCN2CCC(c3c[nH]c4ccccc34)CC2)cc(OC)c1OC(C)=O
Second: COc1ccc(C=Nc2cc(OC)c(OC)c(OC)c2)cc1O[Si](C)(C)C(C)(C)C
The melting point of the first is higher: 169 to 172 °C for the first, 90 to 91 °C for the second.

First: CC1NC(=O)Nc2ccc(C(=O)CBr)cc21 (stereo not drawn)
Second: CN1C(=O)Cc2cc(C3=NNC(=O)CC3)ccc21
The melting point of the first is lower: 188 to 190 °C for the first, 261 to 264 °C for the second.

First: CC(C)NC(=O)NCCCOc1cc(CN2CCCCC2)ccn1
Second: COC(=O)C1=C(SC)N(c2ccc(Cl)cc2Cl)CCC1
The melting point of the first is lower: 58 to 60 °C for the first, 83 to 86 °C for the second.

Compared with `COc1cncc(OC)c1CCCO`, `COc1c2nc3ccccc3sc-2c(C)c(=O)c1OC` is higher in melting point: 88 to 89 °C for the first, 138 °C for the second.

First: COc1nc2cc(Cl)c(Cl)c(N(CC(C)O)S(C)(=O)=O)c2nc1OC (racemic)
Second: CN(C)c1ncc(-c2cc(Cl)cc(Cl)c2Cl)c(N)n1
The melting point of the first is higher: 176 to 177 °C for the first, 145 to 147 °C for the second.

Compared with `COc1ccc2nc(-c3cc(F)c(OC)c(F)c3)cc(Br)c2c1`, `CN1CCc2nc3ccc(Cl)cc3c(Oc3ccccc3)c2C1` is higher in melting point: 170 to 172 °C for the first, 182 to 184 °C for the second.

First: CN1N=C(c2ccc(F)cc2)c2ccc(C#N)cc2CS1(=O)=O
Second: Cc1ccc(C(O)c2cc3ccncc3[nH]2)cc1 (stereo not drawn)
The melting point of the first is higher: 284 to 285 °C for the first, 78 to 82 °C for the second.

First: CC(Cc1cccc(O)c1)NCCC(c1ccccc1)c1ccccc1 (stereo not drawn)
Second: Cc1n[nH]c(-c2ccccc2)c1-c1ccncc1
The melting point of the first is lower: 122 to 124 °C for the first, 212 to 214 °C for the second.

First: NC(=O)c1cc2cc(Cl)ccc2nc1N
Second: O=S1CCON=C1c1nnc(-c2cccc(Cl)c2)o1 (stereo not drawn)
The melting point of the first is higher: 250 to 251 °C for the first, 208 to 210 °C for the second.

Compared with `C=Cn1cc(C(=O)OCC)c(=O)c2cc(F)c(N3CCN(C)CC3)cc21`, `CCOC(=O)C1=C(C)NC(C#N)=C(C(=O)OCC)C1c1cccc([N+](=O)[O-])c1` (stereo not drawn) is lower in melting point: 186 to 188 °C for the first, 174 to 177 °C for the second.

Compared with `CCOc1nc(Cl)ncc1F`, `CCC(Oc1cccc(C(F)F)c1Cl)C1=NCCN1` (stereo not drawn) is higher in melting point: 30 to 32 °C for the first, 96 to 97 °C for the second.

First: CN(C)c1cc(Oc2cccc(C(F)(F)F)c2)nc(C(=O)NN=CC(F)(F)C(F)(F)F)c1
Second: O=C(O)c1ccccc1-c1cc(-c2cccc(C(F)(F)F)c2)no1
The melting point of the first is lower: 108 to 109 °C for the first, 175 to 176 °C for the second.

First: Clc1ccc2c(c1)CSc1ccccc1O2
Second: Nc1ccc(-c2coc3cc(O)c(O)cc3c2=O)cc1
The melting point of the first is lower: 66.8 °C for the first, 305 to 306 °C for the second.

First: Cc1cc(F)cc(-c2ccc3c(c2)C2(CCCCC2)C(=O)N3)c1
Second: C=Cc1ccc(CSC2C(=O)N(c3c(Cl)cc(Cl)cc3Cl)N=C2Nc2cc(NC(C)=O)ccc2Cl)cc1 (stereo not drawn)
The melting point of the first is lower: 180 to 182 °C for the first, 240 °C for the second.

Compared with `O=S(=O)(CC1CC=CCO1)c1ccc(Oc2ccc(OC(F)(F)F)cc2)cc1` (stereo not drawn), `CC(C)(C)OC(=O)NNC(=O)c1cc(=O)c(OCc2ccccc2)c[nH]1` is higher in melting point: 62 to 72 °C for the first, 160 to 165 °C for the second.
